We go through twelve compounds from patent publication US20170334899A1, “AMINO-SUBSTITUTED ISOTHIAZOLES” (Bayer Pharma Aktiengesellschaft, priority 2014, published 2017).

Broadly, the IC50 is the point on the concentration scale where inhibition reaches its midpoint.

In the assay the test system is human cervical tumor cell line HeLa (ATCC CCL-2). Kind of assay: SAC-Formation - Nocodazole-Induced Assay. The assay is classed as cell-based. The note with it: Homo sapiens, HeLa, 24 h, HeLa cells, nocodazole 0.1 μg/ml together with test compound, decrease of mitotic cells (phospho-histone H3 Ser10). Put shortly: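 Loss of phospho-histone H3 Ser10-positive cells, counted against Hoechst-stained nuclei by high-content imaging, marked mitotic breakthrough. Compounds (0.005–20 μM, 0.5% DMSO) were co-dosed with 0.1 μg/ml nocodazole onto HeLa cells for 24 h at 37 °C. Curves were fitted with a four-parameter Hill equation.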

Turning to `Cc1nsc(Nc2cnc(C(F)(F)F)cn2)c1C(=O)Nc1ccc(OC[C@@H]2CCN(CCC(F)(F)F)C2)nc1` [Example 129, 3-Methyl-5-{[5-(trifluoromethyl)pyrazin-2-yl]amino}-N-(6-{[(3R)-1-(3,3,3-trifluoropropyl)pyrrolidin-3-yl]methoxy}pyridin-3-yl)-1,2-thiazole-4-carboxamide], the IC50 came out at 32 nM.
The same measure for `Cc1nsc(Nc2cncc(C(F)(F)F)n2)c1C(=O)Nc1ccc(F)c(OC2CCN(C(=O)OC(C)(C)C)CC2)c1` [Example 168, tert-butyl 4-(2-fluoro-5-{[(3-methyl-5-{[6-(trifluoromethyl)pyrazin-2-yl]amino}-1,2-thiazol-4-yl)carbonyl]amino}phenoxy)piperidine-1-carboxylate]: 17 nM.
Then `Cc1nsc(Nc2cncc(C(F)(F)F)n2)c1C(=O)Nc1ccc(OCC2CCN(C(=O)OC(C)(C)C)C2)nc1` (stereo not drawn) [Example 110, tert-Butyl 3-{[(5-{[(3-methyl-5-{[6-(trifluoromethyl)pyrazin-2-yl]amino}-1,2-thiazol-4-yl)carbonyl]amino}pyridin-2-yl)oxy]methyl}pyrrolidine-1-carboxylate], with 35 nM; and `Cc1nsc(Nc2cnc(C(F)(F)F)cn2)c1C(=O)Nc1ccc(OCC2CCN(CCF)C2)nc1` (stereo not drawn) [Example 121, N-(6-{[1-(2-fluoroethyl)pyrrolidin-3-yl]methoxy}pyridin-3-yl)-3-methyl-5-{[5-(trifluoromethyl)pyrazin-2-yl]amino}-1,2-thiazole-4-carboxamide], with 340 nM; and `Cc1nsc(Nc2cnc(C(F)(F)F)cn2)c1C(=O)Nc1ccc(O[C@H]2CCN(CC(F)(F)F)C[C@H]2F)nc1` [Example 145, N-(6-{[(3R,4S)-3-fluoro-1-(2,2,2-trifluoroethyl)piperidin-4-yl]oxy}pyridin-3-yl)-3-methyl-5-{[5-(trifluoromethyl)pyrazin-2-yl]amino}-1,2-thiazole-4-carboxamide], with 13 nM.
Then `Cc1noc(-c2cccc(NC(=O)c3c(C)nsc3Nc3cnc4ccccc4n3)c2)n1` [Example 106, 3-Methyl-N-[3-(3-methyl-1,2,4-oxadiazol-5-yl)phenyl]-5-(quinoxalin-2-ylamino)-1,2-thiazole-4-carboxamide], with 140 nM.
`Cc1nsc(Nc2cnc3ccccc3n2)c1C(=O)Nc1ccc(Oc2cccc(C(F)(F)F)c2)nc1` [Example 117, 3-Methyl-5-(quinoxalin-2-ylamino)-N-{6-[3-(trifluoromethyl)phenoxy]pyridin-3-yl}-1,2-thiazole-4-carboxamide]: the IC50 was determined as 190 nM.
Then `Cc1nsc(Nc2cnc3ccccc3n2)c1C(=O)Nc1ccc(C(=O)N2CCCN(CC(F)(F)F)CC2)cc1` [Example 159], with 1500 nM; and `Cc1nsc(Nc2cnc(C(F)(F)F)cn2)c1C(=O)Nc1ccc(C(=O)O)cc1` [Example 97, 4-{[(3-Methyl-5-{[5-(trifluoromethyl)pyrazin-2-yl]amino}-1,2-thiazol-4-yl)carbony]-amino}benzoic acid], with 24 nM; and `CNS(=O)(=O)c1ccc(NC(=O)c2c(C)nsc2Nc2cnc3ccccc3n2)cc1` [Example 111, 3-Methyl-N-[4-(methylsulfannoyl)phenyl]-5-(quinoxalin-2-ylamino)-1,2-thiazole-4-carboxamide], with 110 nM.
Turning to `Cc1nsc(Nc2cnc(C(F)(F)F)cn2)c1C(=O)Nc1ccc(OC2CCN(CC(F)(F)F)CC2)nc1` [Example 9, -Methyl-N-(6-{[1-(2,2,2-trifluoroethyl)piperidin-4-yl]oxy}pyridin-3-yl)-5-{[5-(trifluoromethyl)pyrazin-2-yl]amino}-1,2-thiazole-4-carboxamide], the IC50 came out at 220 nM.
The same measure for `Cc1nsc(Nc2cnc(C(F)(F)F)cn2)c1C(=O)Nc1ccc(O[C@@H]2CCN(CC(F)F)C[C@@H]2F)nc1` [Example 137, N-(6-{[(3S,4R)-1-(2,2-difluoroethyl)-3-fluoropiperidin-4-yl]oxy}pyridin-3-yl)-3-methyl-5-{[5-(trifluoromethyl)pyrazin-2-yl]amino}-1,2-thiazole-4-carboxamide]: 34 nM.
